Source: patent publication US20240299393A1, “SMALL MOLECULE DISRUPTORS OF PROTEIN INTERACTIONS IN HISTONE DEACETYLASE COMPLEXES” (Dana-Farber Cancer Institute, Inc., priority 2021, published 2024)
pIC50, pKi: −log10 of the molar value. Where “and” joins values, the source holds several entries; their conditions need not be identical. Identical values can stand only once. Entries after “also recorded” stand apart in the source; their conditions may differ. Square brackets hold non-standard residues; d marks the D form. Peptide text beside a SMILES is read from it. ξ: configuration not given here. Aoe(9ξ) = N[C@@H](CCCCCC(=O)C1CO1)C(=O)O; dPip = O=C(O)[C@H]1CCCCN1

What was measured:
[1] = test system: CDKN1A, SOCS3, EGR1 in SK-N-BE(2)-C cells; assay: RT-qPCR of SIN3 HDAC complex-regulated genes in neuroblastoma cells; type: cell-based, human; settings: 100 μM for 16 h
Protocol: (§1) The RT-qPCR protocol used in this study was described elsewhere [Choi et al 2012]. Culture, RNA extraction, and compound treatments for neuroblastoma SK-N-BE(2)-C cells are described below. Approximately 1 μg RNA per sample was used for reverse transcription. Using a thermocycler, RNA was denatured in the presence of 0.2 μg 18 mer oligo-dT by heating the plate at 65° C. for 10 min. The plate was then immediately cooled down on ice to anneal oligo-dT on the poly-A tail of mRNA. A master mix of AffinityScript Multiple Temperature Reverses Transcriptase (Agilent, cat #600107) was prepared following the manufacturer's protocol, and mixed with RNA samples previously annealed with the oligo-dT. The plate was incubated at 42° C. for 2 h to generate cDNAs from mRNA templates. The reverse transcriptase was then denatured by heating the plate at 70° C. for 15 min. The resulting cDNA was diluted (1:20) in sterile, ultra pure water (ddH2O), and stored at −20° C. until used for qPCR. To measure gene expression, the diluted cDNA was mixed with 5 μL PowerUp SYBR Green master mix (Applied Biosystems, cat #A25743), and the mix of primers (forward+reverse, see FIG. 31; 0.3 μM final concentration) for a total volume of 10 μL. Two technical replicates were generated per cDNA sample in the 384-well PCR plate (Applied Biosystems, cat #4343370). The plate was tightly sealed with optical adhesive film (Applied Biosystems, cat #4311971). Quantitative PCR was conducted with a QuantStudio real-time PCR system from Applied Biosystems, with the following settings: 50° C./2 min, 95° C./10 min, 96° C./15 s/40 cycles, and 60° C./30 s. Dissociation curves were checked for each PCR product, to assess the specificity of the PCR amplicons.
SK-N-BE(2)-C cells were maintained in cell culture flasks supplemented with 10% Fetal bovine serum (FBS) and penicillin/streptomycin (PS) in Dulbecco's Modified Eagle's Medium (DMEM). The cells were maintained at a log phase in a humidified 5% CO2 incubator at 37° C. For testing the effect of the compounds on gene expression, approximately 0.1 million cells were seeded on each well of 24-well cell culture plates, with 1 mL 10% FBS+PS+DMEM. 24 h after seeding the cells, they were exposed to the compounds or DMSO control for 16 h in a humidified 5% CO2 incubator at 37° C., before harvesting them.
Cells were harvested for RNA extraction using Nucleospin 96 RNA (Macherey-Nagel, cat #740709.4) following manufacturer's protocol. Briefly, supernatant was removed, and the cells were gently washed with 1× phosphate-buffered saline. 300 μL lysis buffer were added to each well of 24 well cell culture plates. Roughly 0.1 million cells were used for harvesting each RNA sample. RNA concentration was measured for all purified RNA samples using a nanodrop spectrophotometer.

[2] = target: Sin3 PAH2/Ume6 SID interaction (Saccharomyces cerevisiae, UniProt P22579); assay: biochemical
Protocol: IC50 determination for unlabeled Ume6 SID, E6, E6R and E6S: the concentrations of FITC-Ume6 SID (30 nM), and GST-Sin3 PAH2 (3 μM) were fixed and the compounds were titrated with an HP D300 (Hewlett-Packard, CA) to the assay plate. The assayed concentrations are given here as μM concentrations: 6, 6.6, 8.6, 11.2, 14.7, 19.3, 25.3, 33.1, 43.4, 56.9, 74.5, 97.7, 128, 167.7, 219.7, 287.9, 377.2, 494.2, 647.5 and 848.3.
Using a fluorescence polarization (FP) assay, the interaction between the two minimal domains of Sin3 and Ume6 reported in the literature was measured [Washburn & Esposito 2001, Le Guezennec et al 2006]: the paired amphipathic helix 2 (PAH2; residues 402-473) and the Sin3-interacting domain (SID; residues 516-531), respectively (FIG. 6A). In this FP setting, Sin3 PAH2 is N-terminally fused to a glutathione S-transferase (GST) tag while Ume6 SID is labeled with a fluorescein isothiocyanate (FITC) probe at the N-terminal position. […] The binding affinity of this interaction was evaluated at 0.9 μM, as reflected by the calculated equilibrium dissociation constant, KD.
To examine inhibition of the Sin3-Ume6 interaction by E6 outside of potential interference from other cellular components, an in vitro fluorescence polarization (FP) assay was used.

[3] = target: Sc Sin3 PAH2-Ume6 SID (TAMRA-labeled) interaction (Saccharomyces cerevisiae, UniProt P22579); assay: biochemical
Protocol: Symbols represent individual data points (A) or means with SEM, and lines fitted curves.
IC50 determination for unlabeled Ume6 SID, E6, E6R and E6S: the concentrations of FITC-Ume6 SID (30 nM), and GST-Sin3 PAH2 (3 μM) were fixed and the compounds were titrated with an HP D300 (Hewlett-Packard, CA) to the assay plate.

[4] = Mouse liver microsome stability test; type: in vitro ADME; settings: 1 mg/mL hepatic microsomes
Protocol: Mouse liver microsome (MLM) half-life measurements were performed by Scripps Florida Pharmacology Core, according to their protocols [Lamberto et al 2017]. 1 mg/mL hepatic microsomes was used to test compounds.
To assess whether E6R may be suitable for testing the effect of HDAC inhibition via new mechanisms in mouse, the half-life […] and intrinsic clearance (Clint) of this compound was first measured using a standard microsomal metabolic assay where sunitinib was used as a control [Lamberto et al 2017]. In this setting, compound degradation is induced by concentrated microsomes isolated from mouse liver. In particular, these hepatic extracts contain the cytochrome P450 system that is primarily responsible for first pass metabolism in vivo.

[5] = test system: Rpd3-regulated genes (URS-URA3, INO1, IME2, CAR1, SPO13, TRK2); assay: RT-qPCR of Rpd3-regulated genes in yeast; type: cell-based, S. cerevisiae
Protocol: After yeast cells reached OD600 nm ˜0.5 in 0.8-1 mL of YPD, they were grown for two more hours at room temperature before being centrifuged to remove supernatant and freezing pellets on dry ice. For compound treatments, yeast cells at OD600 nm˜0.5 in YPD were incubated at room temperature for two hours with DMSO (1-1.6%) or the desired compound (from 25 mM stock in 100% DMSO) in an 2 mL-tube for a final volume of 0.8 mL in YPD, before being centrifuged, washed and frozen as described above. Yeast cells were then harvested for RNA extraction using a RiboPure RNA Purification Kit (Invitrogen, cat #AM1926), which involves mechanical cell wall disruption, phenol extraction of the lysate, and RNA purification using glass fiber, and filter-based RNA purification columns. RNA concentration was measured for individually purified RNA samples using a NanoDrop spectrophotometer. A total of 1 μg RNA from each sample was used for reverse transcription following a published procedure [Choi, S. G. et al 2012].
as §1
Expression of gene X normalized to the control gene expression=k*1.96^(Ct^Control^−Ct^Test^) • where k is an arbitrary multiplier (k=1000 in this study), 1.96 is the PCR amplification efficiency constant, Ct is the cycle threshold, CtControl is the Ct value for the housekeeping gene used as control (UBC6 in yeast [Teste et al 2009]; RPS11 in human cells [Zhan et al 2014], and CtTest is the Ct value for the tested gene. Replicates corresponding to DMSO treatments or WT yeast cells were averaged and other data points normalized using those DMSO or WT values as references (i.e. expression relative to DMSO or WT). TAF10 in yeast or SNRPD3 in human cells were used as genes not known for being regulated by an HDAC complex (HDAC-unrelated genes).

[6] = test system: Rpd3-sensitive acid phosphatase activity; assay: Yeast acid phosphatase plate assay; type: cell-based, S. cerevisiae; settings: phosphate-rich (high Pi) medium
Protocol: The acid phosphatase plate assay was implemented as previously described [To et al 1973, Loewith et al 2001], with minor modifications. Cells were grown on high Pi medium (see above) for 2 days, at 30° C. A staining solution containing 2 mg/mL of 1-naphtyl phosphate (Sigma, N5602) and 4 mg/mL fast blue B salt (Sigma, D9805) was then prepared in 50 mM sodium acetate buffer pH 4.0±0.1, and maintained at 50° C. for ˜30 min before being filtered. Meanwhile, a solution of 10 mg/mL (1% weight/volume) ultra pure low melting point (LMP) agarose (Invitrogen, 15517-022) was prepared in 50 mM sodium acetate buffer pH 4.0±0.1, by microwaving the suspension until complete dissolution of the powder. The volume of the agarose solution was checked and readjusted with 50 mM sodium acetate buffer pH 4.0±0.1. The agarose solution was then mixed with the filtered staining solution by vortexing briefly, and the resulting suspension was kept at 50° C. for ˜15 min. The solid agar plate on which cells grew for 2 days were then gently overlaid with the agarose-containing staining solution, allowing its gelification on top of the cells. A red coloring started to appear ˜2 min after covering cells with the solution.

[7] = test system: cycloheximide (CYH) sensitivity; assay: Yeast cycloheximide sensitivity at 37° C.; type: cell-based, S. cerevisiae
Protocol: For assessment of cycloheximide (CYH) sensitivity at 37° C., yeast cells with the cyh2^R genotype (FIG. 29) were first transformed with an empty pDEST-AD-TRP1-CYH2 plasmid (FIG. 30) before running the different experiments. Selection of the plasmid was maintained by culturing cells in SC-W medium.

[8] = test system: HDAC class I and II enzymes (live yeast cells, HeLa nuclear extract, semi-purified human HDAC1); assay: HDAC-Glo I/II luminescence HDAC enzymatic assay; type: biochemical, S. cerevisiae; human; settings: three HDAC sources
Protocol: The HDAC-Glo I/II screening system (Promega, cat #G6430) was adapted to measure the effect of compounds on the enzymatic activity of human and yeast HDAC sources. […] FLAG-HDAC1 was eluted from anti-FLAG beads before running the assay, using a FLAG peptide. Nuclear extracts from human HeLa cells were provided in the assay kit. HDAC enzymatic activity was measured following the manufacturer's protocol. Briefly, linear ranges of the assay were determined by measuring luminescence signals, in a serial dilution manner, for semi-purified human HDAC1, or live yeast cells, diluted in the HDAC-Glo I/II buffer. For HeLa nuclear extracts, the manufacturer provided this information in the assay kit. For the different HDAC sources, dilution factors corresponding to signals in the linear ranges were used. To test the effect of compounds (three or four replicates) on HDAC enzymatic activity, equal volumes of HDAC sources (5 μL), and inhibitors (5 μL) were added to the different wells of a white, flat bottom 384-well plate. The plate was then briefly centrifuged with a tabletop centrifuge, and gently shaken for 1 min at 700 rpm. The plate was tightly sealed to prevent evaporation, and incubated at room temperature for 1 h. […] Luminescence signals were measured using a TriStar luminometer from Berthold Technologies, with 1 s integration time per sample. […]

[9] = test system: human neuroblastoma SK-N-BE(2)-C xenograft; assay: Neuroblastoma xenograft efficacy study; type: in vivo; settings: E6R 50 mg/kg, SAHA 20 mg/kg
Protocol: Xenografts studies were performed at the TRACE PDX platform of the Leuven Cancer Institute (LKI) at KU Leuven-UZ Leuven. Treatment experiments included 24 NMRI-Foxlnu nude mice (Taconic) implanted with human neuroblastoma cell line SK-N-BE(2)-C(2 million cells/implant/mouse). Cells, tested for a full panel of murine pathogens (Impact profile I, IDEXX) prior to engraftment, were resuspended in 50% matrigel solution in PBS for injection in the mouse right flank. When tumors reached a volume of approximately 200 mm^3, mice were randomly assigned to vehicle (34% DMSO, 55% saline 0.9%, 5% ethanol, 5% kolliphor, 1% NaOH 1 M), E6R (50 mg/kg), or SAHA (20 mg/kg) treatment groups. Treatments were administered daily intraperitoneally for 10 days or until reaching human endpoint (i.e. tumor volume >1,500 mm^3). Tumors were measured daily with digital calipers, and volume was estimated as V=L×W×H×(π/6) (L: length; W: width; H: height). […] All data were analyzed using GraphPad Prism 8. Comparisons between the vehicle and treated groups were tested for statistical significance using […].

[10] = test system: DOI-induced head-twitch response (HTR); settings: literature reports; cited from earlier work

Sin3 PAH2/Ume6 SID interaction, sequence (P22579 402-473): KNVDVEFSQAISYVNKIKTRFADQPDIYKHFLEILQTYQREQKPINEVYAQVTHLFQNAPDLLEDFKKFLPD
Sc Sin3 PAH2-Ume6 SID (TAMRA-labeled) interaction, sequence (P22579 402-473): as above

## C[C@H](NC(=O)c1c(O)n2ccccc2nc1=O)c1ccccc1 [E6S]
[1]
  effect on expression of CDKN1A, SOCS3 and EGR1: only perturbed expression of two of the tested downstream genes
[2]
  pIC50: 3.81 and 3.76
[2]; inhibitory concentration (Ki), from Example 6 IC50, assuming competitive inhibition
  pKi: ~4.52
[2]; inhibitory concentrations (Ki), from Example 6A IC50, assumption of competitive inhibition
  pKi: 4.41
[3]
  pIC50: 3.22

## CCN(CC)CCNC(=O)c1c(C)[nH]c(/C=C2\C(=O)Nc3ccc(F)cc32)c1C [sunitinib, reference compound]
[4]
  half-life in mouse liver microsomes: ~10 min

## O=C(CCCCC[C@@H]1NC(=O)[C@H]2CCCCN2C(=O)[C@H](Cc2ccccc2)NC(=O)[C@H](Cc2ccccc2)NC1=O)C1CO1 (stereo partly shown) [TRX, trapoxin A] (cyclo(FF[dPip][Aoe(9ξ)]))
[5]; 250 μM
  effect on CAR1 and SPO13 expression: consistently derepressed
[5]; FIG. 3I
  effect on all Rpd3-regulated loci: activated all Rpd3-regulated loci
[6]
  Rpd3-sensitive acid phosphatase activity: induced
[7]
  CYH sensitivity: induced
[8]
  inhibition of HDAC enzymatic activity: systematically reduced HDAC activity
[1]
  effect on expression of CDKN1A, SOCS3 and EGR1: derepressed

## O=C(CCCCCCC(=O)Nc1ccccc1)NO [SAHA, suberoylanilide hydroxamic acid, reference compound]
[1]
  effect on expression of CDKN1A, SOCS3 and EGR1: derepressed
[9]; daily
  tolerability and body weight of xenografted mice: did not affect mice weight; also recorded: well-tolerated
[9]; daily intraperitoneally 10 days
  growth of neuroblastoma tumors compared to vehicle: significantly reduced the growth
[10]
  head-twitch behavior after chronic treatment: reduced DOI-induced head-twitch behavior in WT, but not in HDAC2 cKO mice; also recorded: reduces head-twitch response (HTR) behavior
